In brackets after ≈: the same amount, converted by molar mass.
Tests used:
Format in all cases: cell-based
[1] = test system: Streptomyces sp. AGRN-7; test: Antibacterial spectrum test, paper disk assay; details: 50 μL of 1000 γ solution in methanol, ISP2 medium, 45° C., 2 days
Protocol: (§1) The antibacterial activity of HK-1 was assayed using a paper disk against the following bacterial bodies.
(§2) A piece of ice out of a glycerol stock of S. griseus stored at −80° C. was planarly inoculated on the YMPD agar culture medium with a toothpick. This was incubated at 28° C. for 5 days. After the incubation, a small amount of spore was scraped off with a swab, and planarly inoculated on the YMPD culture medium. A piece of paper disk was placed on a filter paper, onto which 50 μL of a HK-1 solution adjusted to 1000 γ with methanol was dropped and dried. Then the disk was placed on the agar culture medium coated with the bacterial body. After incubation at 28° C. for 4 days, the diameter of the inhibition ring was measured.
An assay was performed in the same manner as in 3 above, except that the incubation conditions were changed to ISP2 culture medium, 45° C., and 2-day period.

[2] = test system: Bacillus subtilis NBRC 3134^T; test: Heat resistance test B (storage), antibacterial activity as index; details: FIG. 4-2
Protocol: (§3) Examples of a typical test for measuring the stability of a compound include pH stability test, as well as heat resistance test, and storage test. This information is also regarded as important in evaluating the compound as described above. Using the sample of HK-1 prepared in the above “3. Antibacterial activity test in changing pH”, experiments were carried out to examine whether the compound is stable or not using G. stearothermophilus and B. subtilis guided by the antibacterial activity as the index.
(§4) One (1) mL each of two samples prepared in the above “3. Antibacterial activity test in changing pH” was dispensed into two 1-mL micro tubes. The openings of total four tubes were closed hermetically with parafilm, and each one is shielded with an aluminum foil, and stored in a freezer set at −28° C., or an incubator set at 28° C. and 50° C. Each sample was assayed 1, 3, 6, 12, and 24 days after the initiation of the storage using the culture medium for assaying antibacterial activity prepared in “3. Antibacterial activity test in changing pH” above.

[3] = test system: Geobacillus stearothermophilus ATCC 7953; test: as above; details: FIG. 4-3
Protocol: as §3, §4

[4] = test system: Streptomyces sp. AGRN-8; test: Antibacterial spectrum test, paper disk assay; details: 50 μL of 1000 γ solution in methanol, BM medium, 45° C., 2 days
Protocol: as §1, §2
Assays were performed in the same manner as in 3 above, except that the incubation conditions were changed to BM culture medium, 45° C., and 2-day period.

[5] = test system: Geobacillus stearothermophilus 111499 MERCK (ATCC 7953); test: Measurement of minimum inhibitory concentration, dilution method with liquid culture medium; details: ATCC7953, LB liquid medium, 60° C., 135 rpm, 18 hours, visual observation and OD600
Text: The minimum inhibitory concentration (MIC) is one of the antibiotic susceptibility tests, and means the minimum concentration of an antimicrobial substance at which the visible growth of a microorganism can be inhibited. In the research field, the MIC measurement is used, for example, to compare the effects of a new antibiotic substance and a conventional substance, or to examine actions on several strains, and is regarded as an important criterion for evaluating antibiotic substances. The MIC of “HK-1” which was obtained hereunder as the antibacterial active substance was measured using the dilution method with a liquid culture medium.
A piece of ice out of a glycerol stock of G. stearothermophilus stored at −80° C. was planarly inoculated on the LB agar culture medium with a toothpick. This was incubated at 60° C. for 18 hours. One (1) cm^2 of the culture medium was excavated with a toothpick, placed into a long test tube containing 10 mL of a liquid LB culture medium, and subjected to a shaking culture at 60° C., and 300 rpm, for 18 hours. The culture solution was diluted with sterile water to about McF standard No. 1.
Two (2) mg of HK-1 was weighed out into a 2 mL Eppendorf tube using an electric balance. To this Eppendorf tube, 2 mL of methanol was added to dissolve the HK-1 to form a […] solution. The solution was filtrated through a sterilized […] filter. […]

[6] = test system: Streptomyces griseus NBRC 15744^T; test: Antibacterial spectrum test, paper disk assay; details: 50 μL of 1000 γ solution in methanol, YMPD medium, 28° C., 4 days
Protocol: as §1, §2

[7] = pH not adjusted, storage at −28° C., 28° C., 50° C., 1 to 24 days
[8] = two samples (pH 9, pH not adjusted), stored at −28° C., 28° C. and 50° C., after 24 days

difference in antibacterial activity due to the storage temperature [2, 7]: no significant difference
antibacterial activity after storage [2, 8]: not lost
difference in antibacterial activity due to the storage temperature [3, 7]: no significant difference
antibacterial activity after storage [3, 8]: not lost
MIC [5]: 0.78 µg/mL (≈ 0.474 µM)
SMILES: COc1cc(OOc2cc(OC)c3c(c2-c2c(O)c(Cl)c(C)c4c2C(O)c2c(Cl)c(O)cc(O)c2C4=O)C(OC2OC(C)C(O)C2O)c2c(Cl)c(OC)c(Cl)c(C)c2C3=O)c(-c2c(O)c(Cl)c(C)c3c2C(O)c2c(Cl)c(O)cc(O)c2C3=O)c2c1C(=O)c1c(C)c(Cl)c(OC)c(Cl)c1C2OC1OC(C)C(O)C1O (centres unmarked) [HK-1]
inhibition ring diameter [1]: 22.0 mm
inhibition ring diameter [4]: 16.0 mm
inhibition ring diameter [6]: 38.0 mm
